Laboratory results taken from publication PMC3183387 (Journal of the American Chemical Society, 2011).

How the values were obtained:
[1] = test system: Tyr181Cys Variant Strain of HIV-1; conditions: result in words; cited from earlier work
[2] = test system: variant HIV strain that encodes the Tyr181Cys (Y181C) mutation of HIV-RT; test: Anti-HIV activity against Tyr181Cys variant strain in MT-2 cells; assay type: cell-based, HIV-1; conditions: result in words

CC(C)Nc1cccnc1N1CCN(C(=O)c2cc3cc(NS(C)(=O)=O)ccc3[nH]2)CC1 [delavirdine]
activity towards Y181C containing variants [1]: do not have useful activity

Cc1ccnc2c1NC(=O)c1cccnc1N2C1CC1 [nevirapine]
activity against viral strains containing the Tyr181Cys (Y181C) mutation [2]: no activity | activity towards Y181C containing variants [1]: do not have useful activity
